Data as given in patent publication US4552889A, “3-Mercaptomethyl-2-oxo-1-pyrrolidine acetic acids and use for hypertension” (Eli Lilly and Company, priority 1983, dated 1985).

What follows are molecules tested against T1, Angiotensin Converting Enzyme (Oryctolagus cuniculus, UniProt P12822) (assay: Inhibition of Angiotensin Converting Enzyme (fluorometric histidylleucine release from angiotensin I)). Settings: enzyme from rabbit lung; human angiotensin I substrate; pH 7.5; 30 minutes at 37° C; inhibitor range 10^-4 to 10^-9 M; read-out: Concentration giving 50% Inhibition of Conversion of Angiotensin I to Angiotensin II.
T1 construct: The enzyme was isolated from rabbit lung and purified via calcium phosphate gel; from tissue; host or cells: rabbit lung
T1 sequence (P12822 34-1310): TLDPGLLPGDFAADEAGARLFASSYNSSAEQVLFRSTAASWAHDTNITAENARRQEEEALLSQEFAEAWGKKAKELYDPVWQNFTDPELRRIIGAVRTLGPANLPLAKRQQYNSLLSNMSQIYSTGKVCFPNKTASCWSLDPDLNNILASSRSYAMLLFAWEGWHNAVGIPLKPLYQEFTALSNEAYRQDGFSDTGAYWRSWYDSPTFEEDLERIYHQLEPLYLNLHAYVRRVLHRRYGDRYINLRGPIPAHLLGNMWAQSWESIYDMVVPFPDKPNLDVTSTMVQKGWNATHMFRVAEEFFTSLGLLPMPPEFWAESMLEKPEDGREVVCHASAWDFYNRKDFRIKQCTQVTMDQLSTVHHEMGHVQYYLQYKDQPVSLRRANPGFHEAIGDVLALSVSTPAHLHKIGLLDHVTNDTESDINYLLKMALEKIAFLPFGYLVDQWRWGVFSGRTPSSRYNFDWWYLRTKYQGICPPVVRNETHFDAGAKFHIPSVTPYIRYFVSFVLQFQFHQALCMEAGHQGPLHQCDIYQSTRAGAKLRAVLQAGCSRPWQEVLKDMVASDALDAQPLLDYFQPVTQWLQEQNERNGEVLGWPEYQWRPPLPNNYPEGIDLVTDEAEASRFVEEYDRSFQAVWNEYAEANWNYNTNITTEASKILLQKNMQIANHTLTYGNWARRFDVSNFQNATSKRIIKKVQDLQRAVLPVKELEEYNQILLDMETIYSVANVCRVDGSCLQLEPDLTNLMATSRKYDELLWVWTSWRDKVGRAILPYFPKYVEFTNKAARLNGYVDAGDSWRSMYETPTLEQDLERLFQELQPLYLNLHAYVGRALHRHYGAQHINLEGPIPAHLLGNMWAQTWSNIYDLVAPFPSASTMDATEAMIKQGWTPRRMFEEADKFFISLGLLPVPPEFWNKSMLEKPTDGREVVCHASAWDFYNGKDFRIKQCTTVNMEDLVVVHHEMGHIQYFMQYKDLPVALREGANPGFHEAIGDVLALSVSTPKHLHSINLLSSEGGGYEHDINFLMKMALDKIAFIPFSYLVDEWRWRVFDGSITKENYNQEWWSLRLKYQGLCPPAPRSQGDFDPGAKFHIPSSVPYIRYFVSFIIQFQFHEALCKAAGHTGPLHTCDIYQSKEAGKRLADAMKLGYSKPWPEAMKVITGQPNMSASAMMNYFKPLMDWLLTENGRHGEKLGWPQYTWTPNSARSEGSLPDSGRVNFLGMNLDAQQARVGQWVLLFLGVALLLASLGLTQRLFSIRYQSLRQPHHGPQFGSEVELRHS
Assay type: biochemical
Text: The compounds are useful in the treatment of hypertension and congestive heart failure by virtue of their ability to inhibit angiotensin converting enzyme. […] Certain compounds of the present invention were examined as to their ability to inhibit angiotensin converting enzyme in the following test system.
ASSAY OF INHIBITORS OF ANGIOTENSIN CONVERTING ENZYME
The procedure for the assay of angiotensin I converting enzyme activity was essentially that described by Cheung and Cushman, Biochemica et Biophysica Acta, 293, 451-463 (1973). The enzyme was isolated from rabbit lung and purified via calcium phosphate gel, and DEAE-cellulose column chromatography. Human angiotensin I was employed as the substrate. The assay is dependent on the fluorometric measurement of the rate of release of the dipeptide histidylleucine from the substrate by the enzyme when the released dipeptide is reacted with o-phthalicdicarboxaldehyde. A standard curve is prepared with known quantities of histidylleucine.
Incubations were conducted at 37° C. in 13×100 mm. test tubes containing a final volume of 250 μl. The conditions of the assay employed were as follows: 100 μl. of 0.3 mM angiotensin I dissolved in saline-phosphate buffer (30 mM NaCl, 100 mM potassium phosphate, pH 7.5) and 50 μl. of saline-phosphate buffer (or test compound dissolved in the buffer) were allowed to stand at least three minutes at ambient temperature. The enzymic reaction was initiated by adding 100 μl. of enzyme solution containing 25 to 50 μg. protein/ml., determined by the Lowry method. The tubes were incubated for 30 minutes at 37° C. The reaction was terminated by adding 1.45 ml. of 300 mM NaOH followed with 100 μl. of 0.2 percent o-phthalicdicarboxaldehyde in methanol. After ten minutes, 200 μl. of 3M HCl were added. The final volume in the tubes was 2 ml. Fluorometric determinations (365 nm excitation and 500 nm emission) were made after 30 minutes but within 90 minutes after termination of the reaction.
The concentration of the inhibitors were adjusted so that a range of concentrations of 10^-4 to 10^-9 M was obtained in the reaction tubes. Inhibition was measured by the decrease in activity from that of control tubes without inhibitor. Activity was recorded as the molar concentration of inhibitor producing a 50 percent decrease in converting enzyme activity relative to the controls and is summarized in Table I.

Going from `C[C@@H](C(=O)O)N1CCC(C)(CS)C1=O` (stereo partly drawn) [Example 1, (αS)-3-(mercaptomethyl)-α,3-dimethyl-2-oxo-1-pyrrolidineacetic acid] to `CCC1(CS)CCN([C@@H](C)C(=O)O)C1=O` (stereo partly drawn) [Example 2, (αS)-3-ethyl-3-(mercaptomethyl)-α-methyl-2-oxo-1-pyrrolidineacetic acid], the IC50 rises from 1000 nM to 2000 nM (2-fold).

Compared with `C[C@@H](C(=O)O)N1CC[C@](CS)(Cc2ccccc2)C1=O` [Example 3, (αS,3R)-3-(mercaptomethyl)-α-methyl-2-oxo-3-benzyl-1-pyrrolidineacetic acid], `C[C@@H](C(=O)O)N1CC[C@@](CS)(Cc2ccccc2)C1=O` [Example 4, (S,S)-3-(mercaptomethyl)-α-methyl-2-oxo-3-benzyl-1-pyrrolidine-acetic acid] is higher in IC50: 5000 nM for the first, > 100000 nM for the second. The first is the more potent here.
